Test results published in patent publication EP1938810A1, “AMELIORATING AGENT FOR METABOLIC SYNDROME” (FUJI CHEMICAL INDUSTRY CO., LTD., priority 2005, dated 2007).

Experiments:
[1] = tested on: metabolic syndrome model rats (SHR/Ndmer); test: Fasting blood glucose value; type: in vivo, rat; conditions: overnight fasting
Procedure: Water only was given to rats ad lib from the day before the measurement not so as to give any feed to them. In the afternoon, 0.5 U of insulin was injected to them in an amount of 1 ml per 1 kg of the body weight, and the exsanguinations were conducted at given times to measure the glucose concentration in blood using a Antisence Π (a product of Horive Ltd).
(§1) Female 5 weeks old, metabolic syndrome model rats (SHR/Ndmer) (a product of Sankyo laboratories Co., Ltd.) were purchased and reared for about a week in a laboratory animals rearing room of a constant temperature (24 ± 1 °C), a constant humidity (54 ± 5 %) and a 12 hour light-dark cycle, and thereafter used for the experiment. Water and feed were provided ad lib to them. In the experiment, each group consists of 6 rats with proviso that 5 Wistar rats as normal group were used. Sample was orally administered to all rats in the afternoon.
(§2) • 1) Control group: olive oil was administered in an amount of 1 ml per 1 kg of body weight of rat. • 2) Astaxanthin 5 mg/Kg administration group: astaxanthin was administered in an amount of 5 mg in admixture with I ml of olive oil per 1 kg of body weight of rat. • 3) Astaxanthin 50 mg/Kg administration group: astaxanthin was administered in an amount of 50 mg in admixture with I ml of olive oil per 1 kg of body weight of rat. • 4) Normal group: olive oil was administered in an amount of 1 ml per 1 kg of body weight of Wister rat

[2] = Change in body weight of rats under oral astaxanthin; type: in vivo, rat; conditions: for body weight: SHR/Ndmer rats
Procedure: as §1, §2

[3] = tested on: metabolic syndrome model rats (SHR/Ndmer); test: Measurement of adiponectin in blood (ELISA); type: in vivo, rat; conditions: for blood adiponectin concentration: Ax 50 mg/kg oral, SHR/Ndmer rats
Procedure: I ml of blood was exsanguinated from a rat. After centrifugation, the obtained supernatant was subjected to ELISA kit for measuring adiponectin (Otsuka Pharmaceutical Inc.) to measure the adiponectin concentration in blood
as §1, §2

[4] = tested on: metabolic syndrome model rats (SHR/Ndmer); test: Measurement of fat in blood (triglyceride G test); type: in vivo, rat; conditions: for blood fat: Ax 50 mg/kg oral, SHR/Ndmer rats
Procedure: The supernatant formed after centrifugation was subjected to the triglyceride G test using an enzyme (a product of Wako Pure Chemical Industries, Ltd.) to measure the fat concentration in blood.
as §1, §2

[5] = tested on: metabolic syndrome model rats (SHR/Ndmer); test: Blood glucose value after insulin injection (insulin resistance test); type: in vivo, rat; conditions: for blood glucose value after insulin infection: SHR/Ndmer rats, fasted, 120 minutes after 0.5U insulin
Procedure: Water only was given to rats ad lib from the day before the measurement not so as to give any feed to them. In the afternoon, 0.5 U of insulin was injected to them in an amount of 1 ml per 1 kg of the body weight, and the exsanguinations were conducted at given times to measure the glucose concentration in blood using a […] Π (a product of Horive Ltd). Female 5 weeks old, metabolic syndrome model rats ([…] product of Sankyo laboratories Co., Ltd.) were purchased and reared for about a week in a laboratory animals rearing room of a constant temperature (24 ± 1 °C), a constant humidity (54 ± 5 %) and a 12 hour light-dark cycle, and thereafter used for the experiment. Water and feed were provided ad lib to them. In the experiment, each group consists of 6 rats with proviso that 5 Wistar rats as normal group were used. Sample was orally administered to all rats in the afternoon. • 1) Control group: olive oil was administered in an amount of 1 ml per 1 kg of body weight of rat. • 2) Astaxanthin 5 mg/Kg administration group: astaxanthin was administered in an amount of 5 mg in admixture with I ml of olive oil per 1 kg of body weight of rat. • 3) Astaxanthin 50 mg/Kg administration group: astaxanthin was administered in an amount of 50 mg in admixture with I ml of olive oil per 1 kg of body weight of rat. • 4) Normal group: olive oil was administered in an amount of 1 ml per 1 kg of body weight of Wister rat

[6] = background statement; cited from earlier work
[7] = tested on: metabolic syndrome model rats (SHR/Ndmer); test: Measurement of blood pressure (tail artery, plethysmography); type: in vivo, rat; conditions: for diastolic blood pressure / systolic blood pressure: SHR/Ndmer rats
Procedure: Rats were broken in the apparatus since a week ago from the beginning of the experiment. They were bound slightly under a non-anesthetic and cuff with a built-in infrared sensor (THC-1, a product of Softron Co., Ltd. was applied to the tail artery to measure pressure (maximum, minimum and an average blood pressures) by a plethysmography. The measurement of blood pressure was conducted in the afternoon.
as §1, §2

[8] = Ax 5 mg/kg oral, at 7 weeks old
[9] = Ax 5 mg/kg oral, at 9 weeks old
[10] = Ax 5 mg/kg oral, at 12 weeks old
[11] = Ax 5 mg/kg oral, at 17 weeks old
[12] = Ax 50 mg/kg oral, at 7 weeks old
[13] = Ax 50 mg/kg oral, at 9 weeks old
[14] = Ax 50 mg/kg oral, at 12 weeks old
[15] = Ax 50 mg/kg oral, at 17 weeks old
[16] = Ax 5 mg/kg oral, at 6 weeks old
[17] = Ax 50 mg/kg oral, at 6 weeks old
[18] = Ax 5 mg/kg oral, at 24 weeks old
[19] = Ax 50 mg/kg oral, at 24 weeks old

For `CC1=C(/C=C/C(C)=C/C=C/C(C)=C/C=C/C=C(C)/C=C/C=C(C)/C=C/C2=C(C)C(=O)C(O)CC2(C)C)C(C)(C)CC(O)C1=O` (stereo not drawn) [Ax, 3,3'-dihydroxy-β, β-carotene-4, 4'-dione], the “fasting blood glucose value” [1, 8] was 132.0 mg/dL, the “fasting blood glucose value” [1, 9] was 98.0 mg/dL and the “fasting blood glucose value” [1, 10] was 88.3 mg/dL. The “fasting blood glucose value” [1, 11] was 108.8 mg/dL, the “fasting blood glucose value” [1, 12] was 135.0 mg/dL and the “fasting blood glucose value” [1, 13] was 109.0 mg/dL. The “fasting blood glucose value” [1, 14] was 89.3 mg/dL, the “fasting blood glucose value” [1, 15] was 111.8 mg/dL and the body weight [2, 16] was 156 g. The body weight [2, 9] was 259 g, the body weight ([2]; Ax 5 mg/kg oral, at 13 weeks old) was 378 g and the body weight [2, 11] was 468 g. The body weight [2, 17] was 148 g, the body weight [2, 13] was 250 g and the body weight ([2]; Ax 50 mg/kg oral, at 13 weeks old) was 368 g. For the same compound, the body weight [2, 15] was 459 g, the “change in the body weight (in words)” value ([2]; administration of astaxanthin, summary of Table 1) was “no change in the body weight” and the blood adiponectin concentration ([3]; at 7 weeks old) was 7.08 ± 0.43 µg/mL. The blood adiponectin concentration ([3]; at 12 weeks old) was 8.21 ± 0.14 µg/mL, the “adiponectin concentration in blood (in words)” value ([3]; administration of astaxanthin, summary of Table 7) was “increased in comparison with the control group” and the blood fat ([4]; at 7 weeks old) was 139.5 ± 15.9 mg/dL. The blood fat ([4]; at 12 weeks old) was 304.8 ± 9.9 mg/dL, the “increase in the blood fat with the passage of time (in words)” value ([4]; SHR/Ndmer, versus control group, summary of Table 6) was “suppresses the increase in the blood fat” and the “blood glucose value after insulin infection” value [5, 8] was 98.0 mg/dL. For the same compound, the “blood glucose value after insulin infection” value [5, 9] was 85.6 mg/dL, the “blood glucose value after insulin infection” value [5, 10] was 81.5 mg/dL and the “blood glucose value after insulin infection” value [5, 11] was 82.2 mg/dL. For the same compound, the “blood glucose value after insulin infection” value [5, 12] was 106.3 mg/dL, the “blood glucose value after insulin infection” value [5, 13] was 81.0 mg/dL and the “blood glucose value after insulin infection” value [5, 14] was 73.8 mg/dL. For the same compound, the “blood glucose value after insulin infection” value [5, 15] was 72.0 mg/dL, the “insulin resistance (in words)” value ([5]; administration of astaxanthin, summary of Table 5) was “significantly improved” and the “antioxidative action relative to vitamin E (α-tocopherol)” value [6] was “about 1000 times”. The “antioxidative action relative to β-carotene” value [6] was “about 40 times”, the diastolic blood pressure [7, 16] was 121 mmHG and the systolic blood pressure [7, 16] was 144 mmHG. It also gave a diastolic blood pressure [7, 9] of 130 mmHG, a systolic blood pressure [7, 9] of 161 mmHG and a diastolic blood pressure [7, 10] of 129 mmHG. It also gave a systolic blood pressure [7, 10] of 159 mmHG, a diastolic blood pressure [7, 18] of 155 mmHG and a systolic blood pressure [7, 18] of 185 mmHG. The diastolic blood pressure [7, 17] was 121 mmHG, the systolic blood pressure [7, 17] was 147 mmHG and the diastolic blood pressure [7, 13] was 128 mmHG. It also gave a systolic blood pressure [7, 13] of 160 mmHG, a diastolic blood pressure [7, 14] of 119 mmHG and a systolic blood pressure [7, 14] of 154 mmHG. For the same compound, the diastolic blood pressure [7, 19] was 156 mmHG, the systolic blood pressure [7, 19] was 189 mmHG and the “rise in blood pressure (in words)” value ([7]; administration of astaxanthin, summary of Tables 2 and 3) was “suppresses the rise in blood pressure”.
